Source: patent US20020082291A1, “NEW USE OF TAXOID DERIVATIVES” (priority 1999, published 2002)

System: mammary adenocarcinoma MA17/A
Test: Oral antitumor efficacy and toxicity against early stage mammary adenocarcinoma MA17/A grafted subcutaneously in mice
Format: in vivo
Details: for log cell kill: tumor doubling time 1.3 days
Method: Formulation II: 0.2 mg/ml of the compound of formula (la) was mixed in a solution comprising 5% ethanol, 5% Polysorbate 80, and 90% of an aqueous 5% glucose solution.
15 female C3H/HeN mice, each weighing approximately 20 g, were each administered Formulation II orally in a dose of 20.6 mg.kg^−1 per administration per mouse,12.8, 8.4 and 5.5 each day for 5 days.
Animals: The animals subjected to the experiment, generally mice, were subcutaneously grafted bilaterally with 30 to 60 mg of a mammary tumor fragment (adenocarcinoma MA17/A) on day 0. The animals bearing tumors were mixed before being assigned to the various treatment and control groups. Chemotherapy generally began from 3 to 7 days after grafting, depending on the type of tumour, and the animals were observed every day. The different animal groups were weighed 3 or 4 times a week until the maximum weight loss was attained, and the groups were then weighed at least once a week until the end of the trial.
Efficacy: The efficacy of the new pharmaceutical form was evaluated by:
the tumor growth inhibitor (T/C)
The T/C value in percent is an indication of antitumor effectiveness: [formula]
According to NCI standards, a T/C<42% is the minimal level to declare activity. A T/C<10% is considered to indicate high antitumor activity and is the level used by NCI to justify further development (Decision Network-2 level, DN-2).
The T/C value can be converted to an arbitrary activity rating according to the NCI criteria:
and quantified by the log cell kill which is determined by the following formula:
log10 cells killed=T−C(days)/3.32×Td
in which T−C represents the time in days for the tumors of the treated group (T) and the tumors of the non-treated group (C) to reach a predetermined value (750 mg for example). This method is described in T. H. CORBETT et al., Cancer, 40, 2660-2680 (1977); F.M. SCHABEL et al., Cancer Drug Development, Part B. Methods in Cancer Research, 17, 3-51, New York Academic Press Inc. (1979), the disclosure of which is incorporated by reference herein. A product is considered to be active if log10 cells killed is greater than or equal to 0.7. A product is considered to be very active if log10 cells killed is greater than 2.8.

[1] = p.o. 5.5 mg/kg/dose, days 3 to 7, total dose 27.5 mg/kg
[2] = p.o. 8.4 mg/kg/dose, days 3 to 7, total dose 42.0 mg/kg
[3] = p.o. 12.8 mg/kg/dose, days 3 to 7, total dose 64.0 mg/kg

Compound: CO[C@H]1C(=O)[C@]2(C)[C@@H](OC)C[C@H]3OC[C@@]3(OC(C)=O)[C@H]2[C@H](OC(=O)c2ccccc2)[C@]2(O)C[C@H](OC(=O)[C@H](O)[C@@H](NC(=O)OC(C)(C)C)c3ccccc3)C(C)=C1C2(C)C [Product of formula IA, 4α-acetoxy-2α-benzoyloxy-5β,20-epoxy-1β-hydroxy-7β,10β-dimethoxy-9-oxo-11-taxen-13α-yl (2R, 3S)-3tert-butoxycarbonylamino-2-hydroxy-3-phenylpropionate]
- Comments [1]: Inactive
- Drug death (days or death) [1]: 0/5
- T-C [1]: 2.3 days
- Time for median tumor to reach 750 mg [1]: 14.4 days
- Average body weight change in % per mouse post last treatment (day) (p.o. 5.5 mg/kg/dose, days 3 to 7, total dose 27.5 mg/kg, day 8): +0.2(8) %
- Median tumor weight in mg on day 12 (range) [1]: 271(107-432) mg
- T/C in % day 12 [1]: 38%
- log cell kill [1]: 0.5
- Comments [2]: Active
- Drug death (days or death) [2]: 0/5
- T-C [2]: 6.1 days
- Time for median tumor to reach 750 mg [2]: 18.2 days
- Average body weight change in % per mouse post last treatment (day) (p.o. 8.4 mg/kg/dose, days 3 to 7, total dose 42.0 mg/kg, day 9): −11.0(9) %
- Median tumor weight in mg on day 12 (range) [2]: 0(0-268) mg
- T/C in % day 12 [2]: 0%
- log cell kill [2]: 1.4
- Comments [3]: HNTD
- Drug death (days or death) [3]: 0/5
- T-C [3]: 13.8 days
- Time for median tumor to reach 750 mg [3]: 25.9 days
- Average body weight change in % per mouse post last treatment (day) (p.o. 12.8 mg/kg/dose, days 3 to 7, total dose 64.0 mg/kg, day 10): −17.9(10) %
- Median tumor weight in mg on day 12 (range) [3]: 0(0-0) mg
- T/C in % day 12 [3]: 0%
- log cell kill [3]: 3.2
- Comments (p.o. 20.6 mg/kg/dose, days 3 to 7, total dose 103.0 mg/kg): Toxic
- Drug death (days or death) (p.o. 0.2 ml, 20.6 mg/kg/dose, days 3 to 7, total dose 103.0 mg/kg, female C3H/HeN mice): 5/5(7,2d8,10,11)
